The values that follow come from patent publication US7635702B2, “Imidazole compounds as transforming growth factor (TGF) inhibitors” (Pfizer Inc., priority 2002, dated 2009).

The target of the experiment is T1, ALK-5 (TβRI) (Homo sapiens, UniProt P36897).
T1 construct: using either the kinase domain of ALK5 with Smad3 as substrate; GST
T1 sequence (P36897 205-495 limits assumed): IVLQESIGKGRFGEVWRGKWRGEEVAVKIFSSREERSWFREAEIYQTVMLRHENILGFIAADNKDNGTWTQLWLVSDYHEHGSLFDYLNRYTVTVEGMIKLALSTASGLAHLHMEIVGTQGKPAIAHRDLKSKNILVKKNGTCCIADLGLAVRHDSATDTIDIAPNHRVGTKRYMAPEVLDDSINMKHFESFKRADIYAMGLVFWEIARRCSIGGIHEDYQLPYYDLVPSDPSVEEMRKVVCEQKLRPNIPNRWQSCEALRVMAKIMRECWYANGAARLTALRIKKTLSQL
Kind of experiment: ALK-5 (TβRI) kinase assay. Type of experiment: biochemical. The settings on record: GST-ALK5 with GST-Smad3 substrate, 33P-ATP. As for the experimental part: The kinase assays were performed with 65 nM GST-ALK5 and 84 nM GST-Smad3 in 50 mM HEPES, 5 mM MgCl2, 1 mM CaCl2, 1 mM dithiothreitol, and 3_M ATP. Reactions were incubated with 0.5_Ci of [33 P]_ATP for 3 h at 30° C. Phosphorylated protein was captured on P-81 paper (Whatman, Maidstone, England), washed with 0.5% phosphoric acid, and counted by liquid scintillation. Alternatively, Smad3 or Smad1 protein was also coated onto FlashPlate Sterile Basic Microplates (PerkinElmer Life Sciences, Boston, Mass.). Kinase assays were then performed in Flash-Plates with same assay conditions using either the kinase domain of ALK5 with Smad3 as substrate or the kinase domain of ALK6 (BMP receptor) with Smad1 as substrate. Plates were washed three times with phosphate buffer and counted by TopCount (Packard Bio-science, Meriden, Conn.). (Laping, N.J. et al. Molecular Pharmacology 62:58-64 (2002)).

For orientation: pIC50 means the IC50 on a negative log10 scale, so that one unit is a factor of ten. The low end stands for a large IC50, the high end for a small IC50.

pIC50: −log10 of the molar value.

`Cc1cccc(-c2[nH]cnc2-c2ccc3nnn(C)c3c2)n1` [Example 12, 1-Methyl-6-[5-(6-methyl-pyridin-2-yl)-1H-imidazol-4-yl]-1H-benzotriazole] showed a pIC50 of approximately 7.35.
